Results reported in PubChem BioAssay AID248 (DTP/NCI, 2004).
Values joined by “and” are separate entries in the source; they are usually repeats but may differ in a detail not shown here. Equal values may be shown once. Inconclusive results and toxic doses are left out. Cut-off read from the data, not from the text of the source: active = T/C of 150% or more; inactive = T/C below 125%.

Test system: L1210 leukemia ip in BDF1 mice, survival T/C
Test: NCI In Vivo Anticancer Drug Screen. Data for tumor model L1210 Leukemia (intraperitoneal) in B6D2F1 (BDF1) mice
Settings: endpoint: mean survival time, higher = longer survival
Outline: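 Tumor cells were implanted, animals were treated, and survival was followed. The result divides the treated measurement by the vehicle-control measurement.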

[1] = dose: 100.0 mg/kg/injection, schedule: Q04DX003 (ip), vehicle: saline
[2] = dose: 200.0 mg/kg/injection, schedule: Q04DX003 (ip), vehicle: saline
[3] = dose: 400.0 mg/kg/injection, schedule: Q04DX003 (ip), vehicle: saline
[4] = dose: 100.0 mg/kg/injection, schedule: Q01DX009 (ip), vehicle: saline with Tween-80
[5] = dose: 200.0 mg/kg/injection, schedule: Q01DX009 (ip), vehicle: saline with Tween-80
[6] = dose: 100.0 mg/kg/injection, schedule: Q01DX009 (ip), vehicle: Klucel (hydroxypropylcellulose) (HPC)
[7] = dose: 200.0 mg/kg/injection, schedule: Q01DX009 (ip), vehicle: Klucel (hydroxypropylcellulose) (HPC)
[8] = dose: 400.0 mg/kg/injection, schedule: Q01DX009 (ip), vehicle: Klucel (hydroxypropylcellulose) (HPC)
[9] = dose: 100.0 mg/kg/injection, schedule: Q01DX001 (ip), vehicle: Klucel (hydroxypropylcellulose) (HPC)
[10] = dose: 200.0 mg/kg/injection, schedule: Q01DX001 (ip), vehicle: Klucel (hydroxypropylcellulose) (HPC)
[11] = dose: 400.0 mg/kg/injection, schedule: Q01DX001 (ip), vehicle: Klucel (hydroxypropylcellulose) (HPC)

Measured: T/C

O=C1c2ccccc2C(=O)N1c1cc(=O)[nH]c(=O)[nH]1
inactive: dose: 25.0 mg/kg/injection, schedule: Q04DX003 (ip), vehicle: Klucel (hydroxypropylcellulose) (HPC) 111 % of control | dose: 50.0 mg/kg/injection, schedule: Q04DX003 (ip), vehicle: Klucel (hydroxypropylcellulose) (HPC) 92 % of control

COc1ccc(C(=NO)c2ccc(OC)cc2)cc1
inactive: dose: 100.0 mg/kg/injection, schedule: Q01DX009 (ip), vehicle: saline 102 % of control | [1] 104 % of control | dose: 200.0 mg/kg/injection, schedule: Q01DX009 (ip), vehicle: saline 102 % of control | [2] 93 % of control | dose: 400.0 mg/kg/injection, schedule: Q01DX009 (ip), vehicle: saline 107 % of control | [3] 95 % of control

CC(=O)Nc1cncc2ccccc12
inactive: dose: 100.0 mg/kg/injection, schedule: Q01DX009 (ip), vehicle: other 104 % of control | dose: 100.0 mg/kg/injection, schedule: Q04DX002 (ip), vehicle: other 97 % of control | dose: 200.0 mg/kg/injection, schedule: Q01DX009 (ip), vehicle: other 101 % of control | dose: 200.0 mg/kg/injection, schedule: Q04DX002 (ip), vehicle: other 105 % of control | dose: 400.0 mg/kg/injection, schedule: Q01DX009 (ip), vehicle: other 106 % of control | dose: 400.0 mg/kg/injection, schedule: Q04DX002 (ip), vehicle: other 105 % of control

Cc1ccc(C)c(NC(=O)NCc2ccc(Cl)cc2)c1
inactive: [4] 87 % of control | dose: 100.0 mg/kg/injection, schedule: Q04DX003 (ip), vehicle: saline with Tween-80 93 % of control | [5] 89 % of control | dose: 400.0 mg/kg/injection, schedule: Q01DX009 (ip), vehicle: saline with Tween-80 93 % of control | dose: 400.0 mg/kg/injection, schedule: Q04DX003 (ip), vehicle: saline with Tween-80 100 % of control

NC(=O)c1[nH]cnc1NN=NCCCl
inactive: dose: 0.75 mg/kg/injection, schedule: Q01DX001 (ip), vehicle: saline with Tween-80 106 % of control | dose: 0.75 mg/kg/injection, schedule: Q01DX009 (ip), vehicle: saline with Tween-80 119 % of control | dose: 1.5 mg/kg/injection, schedule: Q01DX009 (ip), vehicle: saline with Tween-80 122 % of control | dose: 25.0 mg/kg/injection, schedule: Q01DX009 (ip), vehicle: saline with Tween-80 91 % of control
active: dose: 0.37 mg/kg/injection, schedule: Q01DX009 (ip), vehicle: saline with Tween-80 165 % of control | dose: 3.0 mg/kg/injection, schedule: Q01DX009 (ip), vehicle: saline with Tween-80 173 % of control | dose: 3.12 mg/kg/injection, schedule: Q01DX009 (ip), vehicle: saline with Tween-80 172 % of control | dose: 4.0 mg/kg/injection, schedule: Q01DX009 (ip), vehicle: saline with Tween-80 156 % of control and 189 % of control | dose: 6.0 mg/kg/injection, schedule: Q01DX009 (ip), vehicle: saline with Tween-80 164 % of control and 240 % of control | dose: 6.25 mg/kg/injection, schedule: Q01DX009 (ip), vehicle: saline with Tween-80 258 % of control | dose: 9.0 mg/kg/injection, schedule: Q01DX009 (ip), vehicle: saline with Tween-80 191 % of control and 215 % of control | dose: 12.5 mg/kg/injection, schedule: Q01DX001 (ip), vehicle: saline with Tween-80 247 % of control | dose: 12.5 mg/kg/injection, schedule: Q01DX009 (ip), vehicle: saline with Tween-80 161 % of control | dose: 17.0 mg/kg/injection, schedule: Q01DX001 (ip), vehicle: saline with Tween-80 215 % of control and 229 % of control | dose: 25.0 mg/kg/injection, schedule: Q01DX001 (ip), vehicle: saline with Tween-80 207 % of control and 285 % of control and 313 % of control | dose: 37.0 mg/kg/injection, schedule: Q01DX001 (ip), vehicle: saline with Tween-80 171 % of control and 257 % of control | dose: 50.0 mg/kg/injection, schedule: Q01DX001 (ip), vehicle: saline with Tween-80 197 % of control

COc1ccc(-c2sc(/N=C/c3cccs3)c(C#N)c2C)cc1OC
inactive: [6] 94 % of control | [7] 95 % of control | [8] 97 % of control

COc1cc(/C=N/NC(=O)c2ccccc2NC(=O)c2ccccc2)ccc1O
inactive: [6] 97 % of control | [7] 95 % of control | [8] 100 % of control

O=C(NC(CS(=O)(=O)O)C(=O)O)OCc1ccccc1 (stereo unspecified)
inactive: [9] 93 % of control | dose: 100.0 mg/kg/injection, schedule: Q04DX003 (ip), vehicle: Klucel (hydroxypropylcellulose) (HPC) 93 % of control | [10] 97 % of control | dose: 200.0 mg/kg/injection, schedule: Q04DX003 (ip), vehicle: Klucel (hydroxypropylcellulose) (HPC) 95 % of control | [11] 91 % of control

CCNS(=O)(=O)c1cccc(C(=S)OCC)c1
inactive: [9] 105 % of control | [10] 101 % of control | [11] 108 % of control

O=S1(=O)CCCCC1
inactive: dose: 75.0 mg/kg/injection, schedule: Q01DX009 (ip), vehicle: other 106 % of control | dose: 100.0 mg/kg/injection, schedule: Q04DX003 (ip), vehicle: saline sonified 95 % of control | dose: 150.0 mg/kg/injection, schedule: Q01DX009 (ip), vehicle: other 101 % of control | dose: 200.0 mg/kg/injection, schedule: Q04DX003 (ip), vehicle: saline sonified 93 % of control | dose: 300.0 mg/kg/injection, schedule: Q01DX009 (ip), vehicle: other 93 % of control | dose: 400.0 mg/kg/injection, schedule: Q04DX003 (ip), vehicle: saline sonified 95 % of control

CCCCCCCCCCCCCCC(=O)[O][Hg][c]1ccccc1
inactive: dose: 75.0 mg/kg/injection, schedule: Q01DX001 (ip), vehicle: steriod suspending solution 100 % of control

CCOc1ccc(Nc2ncnc3nc[nH]c23)cc1CN(CCCl)CCCl
inactive: dose: 1.2 mg/kg/injection, schedule: Q01DX Z (ip), vehicle: carboxymethylcellulose (CMC) 98 % of control | dose: 1.3 mg/kg/injection, schedule: Q01DX Z (ip), vehicle: carboxymethylcellulose (CMC) 114 % of control | dose: 1.56 mg/kg/injection, schedule: Q04DX003 (ip), vehicle: saline 113 % of control | dose: 1.9 mg/kg/injection, schedule: Q01DX Z (ip), vehicle: carboxymethylcellulose (CMC) 117 % of control | dose: 2.5 mg/kg/injection, schedule: Q01DX Z (ip), vehicle: carboxymethylcellulose (CMC) 103 % of control | dose: 3.3 mg/kg/injection, schedule: Q04DX003 (ip), vehicle: saline 111 % of control | dose: 4.2 mg/kg/injection, schedule: Q01DX Z (ip), vehicle: carboxymethylcellulose (CMC) 116 % of control | dose: 5.0 mg/kg/injection, schedule: Q01DX001 (ip), vehicle: carboxymethylcellulose (CMC) 104 % of control | dose: 5.0 mg/kg/injection, schedule: Q01DX Z (ip), vehicle: carboxymethylcellulose (CMC) 116 % of control | dose: 5.0 mg/kg/injection, schedule: Q04DX003 (ip), vehicle: saline 122 % of control | dose: 7.5 mg/kg/injection, schedule: Q04DX003 (ip), vehicle: saline 121 % of control | dose: 10.0 mg/kg/injection, schedule: Q01DX001 (ip), vehicle: carboxymethylcellulose (CMC) 102 % of control | dose: 10.0 mg/kg/injection, schedule: Q01DX Z (ip), vehicle: carboxymethylcellulose (CMC) 110 % of control | dose: 20.0 mg/kg/injection, schedule: Q01DX001 (ip), vehicle: carboxymethylcellulose (CMC) 109 % of control | dose: 40.0 mg/kg/injection, schedule: Q01DX001 (ip), vehicle: carboxymethylcellulose (CMC) 102 % of control

C=CC(=O)N(C)OC
inactive: dose: 100.0 mg/kg/injection, schedule: Q01DX001 (ip), vehicle: saline 101 % of control | [1] 100 % of control | dose: 200.0 mg/kg/injection, schedule: Q01DX001 (ip), vehicle: saline 96 % of control | [2] 104 % of control | dose: 400.0 mg/kg/injection, schedule: Q01DX001 (ip), vehicle: saline 112 % of control | [3] 98 % of control

CC(C)C(=O)Nc1cccc(O)c1
inactive: [4] 90 % of control | [5] 90 % of control

C/C(CCC1=CC=CC1=O)=N\NC(N)=O
inactive: dose: 100.0 mg/kg/injection, schedule: Q01DX001 (ip), vehicle: other 98 % of control

O=C(Nc1cccc2ccccc12)c1ccc(Cl)cc1Cl
inactive: [6] 103 % of control | [7] 100 % of control | [8] 96 % of control

NCCNC12CC3CC(CC(C3)C1)C2
inactive: dose: 100.0 mg/kg/injection, schedule: Q04DX002 (ip), vehicle: saline 113 % of control | dose: 200.0 mg/kg/injection, schedule: Q04DX002 (ip), vehicle: saline 107 % of control
